Values of other authors, collected in patent publication US20040086492A1, “Method of treating tumor and consignment system of proliferating and processing activated lymphocytes to be used in parallel to pdt” (priority 2001, published 2004).

Conditions: stated as a characteristic of Photofrin

## porfirmer sodium [Photofrin]
  rate taken into cancerous tissue relative to normal tissue: approximately 10 times
